Experimental data from patent US8765679B2, “Extract and peptides derived from Oryza sativa Japonica Group and uses thereof” (Yissum Research Development Company of The Hebrew …, priority 2010, dated 2014).
Entries after “also recorded” stand apart in the source; their conditions may differ.

Experiments:
EAE mice = test: Experimental autoimmune encephalitis (EAE) induced with MOG peptide 35-55, neurological score; type: in vivo, Female C57BL/6 mice; conditions: for neurological score / neurological symptoms: oral 100 μg/kg, FIG. 2C, FIG. 3
experimental model of MS = conditions: intravenous and oral administrations; cited from earlier work
[1] = test system: carrageenan-induced hind paw swelling; test: Carrageenan-induced hind paw swelling; type: in vivo; conditions: 30 minutes prior to carrageenan, FIG. 5
Description: RA1 or saline were injected 30 minutes prior to carrageenan injection into the subplantar area. The diameter of the subplantar area was measured every 60 minutes by a micrometer. […] The effect of RA1 was tested in an animal model for inflammation. Inflammation induced by carrageenan, is acute, well-researched, and highly reproducible. Cardinal signs of inflammation edema, hyperalgesia, and erythema develop immediately following subcutaneous injection, resulting from action of proinflammatory agents bradykinin, histamine, tachykinins, complement and reactive oxygen, and nitrogen species. The inflammatory response is usually quantified by increase in paw size (edema). RA1 or its vehicle, i.e., saline, was injected ip 30 minutes prior to carrageenan treatment. Carrageenan (50 μl of 3 mg/ml) was injected into the subplantar area of both limbs of each animal. The diameter of the subplantar area was measured every 60 minutes by a micrometer. The degree of swelling was assessed by the difference between thicknesses measured after and prior to carrageenan injection (zero time).

[2] = test system: mouse peritoneal macrophages; test: Oxidative burst of PMA-activated peritoneal macrophages (luminescence); type: cell-based; conditions: for oxidative burst in activated macrophages (luminescence): added 1 minute after PMA, FIG. 6
Description: Mice were injected i.p. with thioglycolate. Peritoneal macrophages were obtained and incubated with horse-reddish peroxidase and luminol. The reaction started by the addition of phorbol myristate acetate (PMA) and 1 minute later RA1 was added. Luminescence measurement was started after PMA addition. Each cycle represents 74 seconds.
Mice were injected ip with 1.5 ml thioglycolate (29.8 g/l). Peritoneal macrophages were obtained and incubated (2.5×10^6 cells/ml) in HBSS with 2 μl of 1 mM CoCl2, 2 μl 100 mM Na2SeO3, 2 μl of 10 mM luminal. The reaction started by the addition of 5 μl of 100 μM phorbol myristate acetate (PMA) (final concentration of 2.5 μM) and one minute later RA1 was added. Luminescence measurement was started after PMA addition. Each cycle represents 74 seconds.

Murine naïve CD4 cells = test: Cytokine profile of RA1-treated CD4 cells (ELISA of supernatants); type: cell-based; conditions: anti-CD3/anti-CD28/IL2-activated CD4 cells, supernatants at 72 h
Description: Murine lymph nodes and/or spleens were mashed, harvested and single cell suspension was passed through a […] cell strainer and washed. Murine naïve CD4 cells were MACS separated using Miltenyi CD4 beads (Miltenyi Biotec GmbH, Bergisch Gladbach, ermany) according to manufacture instructions. Isolated T cells were seeded and activated with anti-CD3 […] and anti-CD28 […] (BD Biosciences, San Jose, Calif., USA) in the presence of IL2 (10 U/ml), (PeproTech Inc, Rocky Hill, N.J., USA). For cytokine production and RA1 determination supernatants were collected for ELISA. Cytokine analysis was performed in supernatants at 72 h using commercial kits: IFNγ, IL12 and IL4 (Perpotech), IL-17 (R&D systems) and IL10 (BD Biosciences).

[3] = 3 times a week, starting 7 days after MOG immunization

EMIDLAAKMLSEGRG (ORYZA SATIVA JAPONICA) [RA2]
neurological score (EAE mice; i.p. 1 μg/kg, 3 times a week, starting 7 days after MOG immunization, FIG. 2B, FIG. 4): reduction of the neurological score

AEMIDLAAKMLSEG (ORYZA SATIVA JAPONICA) [RA4]
neurological score / neurological symptoms (EAE mice; [3]): reduction of the neurological score

AEMIDLAAKMLSEGR (ORYZA SATIVA JAPONICA) [RA3]
neurological score / neurological symptoms (EAE mice; [3]): reduction of the neurological score

KGHYAERVG (listed as Homo sapiens) [IIIM1, 9-mer peptide derived from human histone H2A]
neurological symptoms in the diseased mice (experimental model of MS): significantly ameliorated the neurological symptoms

AEMIDLAAKMLSEGRG (ORYZA SATIVA JAPONICA) [RA1, 16-mer peptide, amino acid residues 217-232 of Oryza sativa Japonica Group]
neurological score (EAE mice; i.p. 0.1 μg/kg, three times a week, starting seven days after MOG immunization, FIG. 4): an increased effect | neurological score (EAE mice; i.v., once on the day of MOG immunization, FIG. 2A): significantly improved | neurological score / neurological symptoms (EAE mice; [3]): beneficial in reducing the neurological symptoms; also recorded: an increased effect | swelling induced after the carrageenan injection ([1]; one dose 1.0 μg/kg ip): significantly reduced | swelling induced after the carrageenan injection ([1]; one dose 10 μg/kg ip): significantly reduced | oxidative burst in activated macrophages (luminescence) ([2]; 0.1 ng/ml): less effective | oxidative burst in activated macrophages (luminescence) ([2]; 1.0 ng/ml): less effective | oxidative burst in activated macrophages (luminescence) ([2]; 10 ng/ml): strongly inhibited | hydroxyl radical scavenger ([2]; summary statement referring to Example 6): highly effective | IFNγ production (Murine naïve CD4 cells; FIG. 10A): reduction | IL17 production (Murine naïve CD4 cells; FIG. 10B): reduction | IL4 production (Murine naïve CD4 cells; FIG. 10C): elevation | IL10 production (Murine naïve CD4 cells; FIG. 10D): elevation
